Species on record: Rattus norvegicus
Assay: Open TG-GATES - Regimen: Daily Repeat
Type: toxicity, organism-based, Sprague-Dawley
Design: regimen Daily Repeat, gender Male, age 6 weeks
Settings: in vivo, po, route gavage; for APTT / Bas / Eos / Fbg / Hb / Ht / Lym / MCH / MCHC / MCV / Mono / Neu / PT / Plat / RBC / Ret / WBC: tissue Blood; for KIDNEY_L / KIDNEY_R / KIDNEY_TOTAL: tissue Kidney; for LIVER: tissue Liver; for A/G / ALP / ALT / AST / BUN / CRE / Ca / Cl / DBIL / GLC / IP / K / LDH / Na / PL / RALB / TBIL / TC / TG / TP / gamma-GTP: tissue Plasma
[1] = 25 mg/kg, 72 h, dose level Middle, time 3 day
[2] = 25 mg/kg, […], dose level Middle, time 7 day
[3] = 25 mg/kg, […], dose level Middle, time 14 day
[4] = 25 mg/kg, […], dose level Middle, time 28 day
[5] = 75 mg/kg, 72 h, dose level High, time 3 day
[6] = 75 mg/kg, […], dose level High, time 7 day
[7] = 75 mg/kg, […], dose level High, time 14 day
[8] = 75 mg/kg, […], dose level High, time 28 day

## NC1=NC(=O)C(c2ccccc2)O1 (centres undefined) [PEMOLINE]
[1]
  TERMINAL_BW: 222.4 g
  APTT: 16.7 s
  Bas: 0%
  Eos: 1%
  Fbg: 288.4 mg/dL
  Hb: 13.3 g/dL
  Ht: 39%
  Lym: 76.2%
  MCH: 21.3 pg
  MCHC: 33.9%
  MCV: 62.6 fL
  Mono: 3%
  Neu: 19.4%
  PT: 13 s
  Plat: 109.7 x10_4/uL
  RBC: 623.8 x10_4/ul
  Ret: 6.1%
  WBC: 79.9 x10_2/uL
  KIDNEY_L: 1 g
  KIDNEY_R: 0.9 g
  KIDNEY_TOTAL: 1.9 g
  LIVER: 9.9 g
  A/G: 0.9
  ALP: 1654.8 IU/L
  ALT: 41.8 IU/L
  AST: 72.6 IU/L
  BUN: 13.8 mg/dL
  CRE: 0.2 mg/dL
  Ca: 10.7 mg/dL
  Cl: 105.8 meq/L
  DBIL: 0.018 mg/dL
  GLC: 177.4 mg/dL
  IP: 7.5 mg/dL
  K: 4.1 meq/L
  LDH: 54.2 IU/L
  Na: 142.2 meq/L
  PL: 130.6 mg/dL
  RALB: 2.6 g/dL
  TBIL: 0.03 mg/dL
  TC: 79.8 mg/dL
  TG: 40 mg/dL
  TP: 5.4 g/dL
  gamma-GTP: 1 IU/L
[2]
  TERMINAL_BW: 260.2 g
  APTT: 15.8 s
  Bas: 0%
  Eos: 1%
  Fbg: 268.6 mg/dL
  Hb: 13.4 g/dL
  Ht: 39.5%
  Lym: 73.4%
  MCH: 20.9 pg
  MCHC: 34%
  MCV: 61.5 fL
  Mono: 3%
  Neu: 21.8%
  PT: 13.1 s
  Plat: 116 x10_4/uL
  RBC: 642.2 x10_4/ul
  Ret: 5.8%
  WBC: 107.7 x10_2/uL
  KIDNEY_L: 1.1 g
  KIDNEY_R: 1.1 g
  KIDNEY_TOTAL: 2.3 g
  LIVER: 11.6 g
  A/G: 0.9
  ALP: 1546.6 IU/L
  ALT: 44.4 IU/L
  AST: 75.6 IU/L
  BUN: 15.6 mg/dL
  CRE: 0.2 mg/dL
  Ca: 10.4 mg/dL
  Cl: 104.4 meq/L
  DBIL: 0.016 mg/dL
  GLC: 179 mg/dL
  IP: 8 mg/dL
  K: 4.2 meq/L
  LDH: 75.6 IU/L
  Na: 142 meq/L
  PL: 141.6 mg/dL
  RALB: 2.5 g/dL
  TBIL: 0.024 mg/dL
  TC: 73.4 mg/dL
  TG: 117.8 mg/dL
  TP: 5.4 g/dL
  gamma-GTP: 1 IU/L
[3]
  TERMINAL_BW: 319 g
  APTT: 16.6 s
  Bas: 0%
  Eos: 1%
  Fbg: 294.2 mg/dL
  Hb: 14.7 g/dL
  Ht: 42.4%
  Lym: 78.8%
  MCH: 21.3 pg
  MCHC: 34.7%
  MCV: 61.3 fL
  Mono: 2.6%
  Neu: 17.2%
  PT: 13.1 s
  Plat: 114.8 x10_4/uL
  RBC: 692.2 x10_4/ul
  Ret: 4.6%
  WBC: 86.6 x10_2/uL
  KIDNEY_L: 1.3 g
  KIDNEY_R: 1.3 g
  KIDNEY_TOTAL: 2.5 g
  LIVER: 14 g
  A/G: 0.8
  ALP: 1343.2 IU/L
  ALT: 46.6 IU/L
  AST: 72.2 IU/L
  BUN: 16.8 mg/dL
  CRE: 0.2 mg/dL
  Ca: 11.2 mg/dL
  Cl: 105.2 meq/L
  DBIL: 0.014 mg/dL
  GLC: 182.6 mg/dL
  IP: 8.7 mg/dL
  K: 4 meq/L
  LDH: 68.4 IU/L
  Na: 144.2 meq/L
  PL: 158.6 mg/dL
  RALB: 2.7 g/dL
  TBIL: 0.022 mg/dL
  TC: 83.6 mg/dL
  TG: 119.4 mg/dL
  TP: 6 g/dL
  gamma-GTP: 1 IU/L
[4]
  TERMINAL_BW: 384.9 g
  APTT: 17.9 s
  Bas: 0.6%
  Eos: 1%
  Fbg: 269 mg/dL
  Hb: 15.9 g/dL
  Ht: 44.1%
  Lym: 80%
  MCH: 20.6 pg
  MCHC: 36.1%
  MCV: 57.1 fL
  Mono: 2.4%
  Neu: 15.2%
  PT: 12.7 s
  Plat: 109.5 x10_4/uL
  RBC: 771.4 x10_4/ul
  Ret: 2.6%
  WBC: 116.8 x10_2/uL
  KIDNEY_L: 1.4 g
  KIDNEY_R: 1.3 g
  KIDNEY_TOTAL: 2.7 g
  LIVER: 14.4 g
  A/G: 0.8
  ALP: 1018.2 IU/L
  ALT: 37.8 IU/L
  AST: 66.8 IU/L
  BUN: 16.6 mg/dL
  CRE: 0.2 mg/dL
  Ca: 11.2 mg/dL
  Cl: 105.2 meq/L
  DBIL: 0.016 mg/dL
  GLC: 179.4 mg/dL
  IP: 7.5 mg/dL
  K: 3.9 meq/L
  LDH: 76.8 IU/L
  Na: 143.4 meq/L
  PL: 134.4 mg/dL
  RALB: 2.7 g/dL
  TBIL: 0.03 mg/dL
  TC: 71.6 mg/dL
  TG: 134.8 mg/dL
  TP: 6.2 g/dL
  gamma-GTP: 1 IU/L
[5]
  TERMINAL_BW: 210.2 g
  APTT: 16.1 s
  Bas: 0%
  Eos: 1%
  Fbg: 378.8 mg/dL
  Hb: 13.2 g/dL
  Ht: 38.4%
  Lym: 72.6%
  MCH: 21.4 pg
  MCHC: 34.3%
  MCV: 62.4 fL
  Mono: 4%
  Neu: 21.4%
  PT: 13.1 s
  Plat: 116.2 x10_4/uL
  RBC: 614.2 x10_4/ul
  Ret: 5.7%
  WBC: 96.9 x10_2/uL
  KIDNEY_L: 1 g
  KIDNEY_R: 1 g
  KIDNEY_TOTAL: 1.9 g
  LIVER: 9.5 g
  A/G: 0.9
  ALP: 1189.4 IU/L
  ALT: 40.6 IU/L
  AST: 91.6 IU/L
  BUN: 14.4 mg/dL
  CRE: 0.2 mg/dL
  Ca: 10.5 mg/dL
  Cl: 106 meq/L
  DBIL: 0.014 mg/dL
  GLC: 162.2 mg/dL
  IP: 7.4 mg/dL
  K: 4 meq/L
  LDH: 46.6 IU/L
  Na: 142.6 meq/L
  PL: 118.6 mg/dL
  RALB: 2.6 g/dL
  TBIL: 0.03 mg/dL
  TC: 70.8 mg/dL
  TG: 40.2 mg/dL
  TP: 5.4 g/dL
  gamma-GTP: 1 IU/L
[6]
  TERMINAL_BW: 237.7 g
  APTT: 16.7 s
  Bas: 0%
  Eos: 1%
  Fbg: 294.8 mg/dL
  Hb: 13.9 g/dL
  Ht: 40.7%
  Lym: 78%
  MCH: 21.9 pg
  MCHC: 34.2%
  MCV: 63.8 fL
  Mono: 3%
  Neu: 17.8%
  PT: 12.9 s
  Plat: 131.8 x10_4/uL
  RBC: 638.8 x10_4/ul
  Ret: 6.6%
  WBC: 88.3 x10_2/uL
  KIDNEY_L: 1.1 g
  KIDNEY_R: 1.1 g
  KIDNEY_TOTAL: 2.1 g
  LIVER: 10.9 g
  A/G: 0.9
  ALP: 1601.8 IU/L
  ALT: 44 IU/L
  AST: 83.2 IU/L
  BUN: 15 mg/dL
  CRE: 0.2 mg/dL
  Ca: 10.6 mg/dL
  Cl: 105.8 meq/L
  DBIL: 0.015 mg/dL
  GLC: 174.8 mg/dL
  IP: 7.7 mg/dL
  K: 4.4 meq/L
  LDH: 65 IU/L
  Na: 142.5 meq/L
  PL: 128.2 mg/dL
  RALB: 2.6 g/dL
  TBIL: 0.025 mg/dL
  TC: 65.8 mg/dL
  TG: 65.5 mg/dL
  TP: 5.6 g/dL
  gamma-GTP: 1 IU/L
[7]
  TERMINAL_BW: 305 g
  APTT: 16.9 s
  Bas: 0%
  Eos: 1.2%
  Fbg: 259.4 mg/dL
  Hb: 14.6 g/dL
  Ht: 41.8%
  Lym: 72.4%
  MCH: 21.1 pg
  MCHC: 34.8%
  MCV: 60.5 fL
  Mono: 2.8%
  Neu: 23.2%
  PT: 13 s
  Plat: 105.3 x10_4/uL
  RBC: 691.2 x10_4/ul
  Ret: 4.7%
  WBC: 89.3 x10_2/uL
  KIDNEY_L: 1.3 g
  KIDNEY_R: 1.3 g
  KIDNEY_TOTAL: 2.6 g
  LIVER: 13.8 g
  A/G: 0.8
  ALP: 1468 IU/L
  ALT: 39 IU/L
  AST: 79.8 IU/L
  BUN: 14.8 mg/dL
  CRE: 0.2 mg/dL
  Ca: 11.1 mg/dL
  Cl: 106 meq/L
  DBIL: 0.012 mg/dL
  GLC: 176.2 mg/dL
  IP: 8.1 mg/dL
  K: 4 meq/L
  LDH: 79.2 IU/L
  Na: 143.4 meq/L
  PL: 135 mg/dL
  RALB: 2.7 g/dL
  TBIL: 0.022 mg/dL
  TC: 69.2 mg/dL
  TG: 86.8 mg/dL
  TP: 5.9 g/dL
  gamma-GTP: 1 IU/L
[8]
  TERMINAL_BW: 376.6 g
  APTT: 18.6 s
  Bas: 0.4%
  Eos: 1%
  Fbg: 255.2 mg/dL
  Hb: 15.7 g/dL
  Ht: 44.2%
  Lym: 79.4%
  MCH: 20.8 pg
  MCHC: 35.6%
  MCV: 58.5 fL
  Mono: 2.8%
  Neu: 16.2%
  PT: 12.6 s
  Plat: 90.5 x10_4/uL
  RBC: 755.2 x10_4/ul
  Ret: 2.8%
  WBC: 90.3 x10_2/uL
  KIDNEY_L: 1.5 g
  KIDNEY_R: 1.4 g
  KIDNEY_TOTAL: 2.9 g
  LIVER: 16.2 g
  A/G: 0.8
  ALP: 1096 IU/L
  ALT: 44.6 IU/L
  AST: 77.6 IU/L
  BUN: 16.4 mg/dL
  CRE: 0.2 mg/dL
  Ca: 11.3 mg/dL
  Cl: 105 meq/L
  DBIL: 0.024 mg/dL
  GLC: 179.2 mg/dL
  IP: 7.6 mg/dL
  K: 4 meq/L
  LDH: 81.4 IU/L
  Na: 143.6 meq/L
  PL: 126.8 mg/dL
  RALB: 2.8 g/dL
  TBIL: 0.034 mg/dL
  TC: 59 mg/dL
  TG: 132 mg/dL
  TP: 6.2 g/dL
  gamma-GTP: 1 IU/L
